Data taken from publication PMC9760738, “Pharmacokinetics, absorption, distribution, metabolism and excretion of the MEK inhibitor zapnometinib in rats” (Frontiers in Pharmacology, 2022).
Where two headings read alike, the source gives them in different places.

Tests used:
MEK = test system: MEK; set-up: method as in Lorusso et al., 2005; settings: ref Lorusso et al., 2005; read-out: 50% inhibitory concentration (IC50); cited from earlier work
[1] = set-up: method as in Wabnitz et al., 2004; settings: rat; ref Wabnitz et al., 2004; cited from earlier work
[2] = set-up: method as in Wabnitz et al., 2004; settings: monkey; ref Wabnitz et al., 2004; cited from earlier work
[3] = Metabolite profiling of pooled feces extracts by radio-HPLC (Group 2); format: in vivo, rat
Protocol: (§1) Metabolite profiling was performed by HPLC analysis according to the company’s SOP of plasma (Group 3), urine (Group 2) and feces (Group 2) samples. Briefly, for metabolite profiling and identification, radioactivity (cpm) was measured in HPLC eluent fractions that had previously been collected at 12 s intervals for the duration of the run (65 min) into 96-well Deep Well LumaPlates and dried in a centrifugal evaporator. A Microbeta2 scintillation counter was used to count each plate, with wells simultaneously counted for 2 min, after an initial 5 min delay. A subsample of plasma was analyzed (ca 2 ml) taken from individual animals to provide representative samples, for each sex, at 2, 8 and 168 h post dose (n = 6). Equal proportions of the total urine weight voided from Group 2 animals was pooled to provide representative samples for each sex at 0–6 h, 6–24 h and 24–48 h post dose (n = 6). Equal proportions of the total feces homogenate generated from the samples voided by the three rats (Group 2) were pooled to provide representative samples for each sex at 0–24 and 24–48 h post dose ([…]). Sample preparation was carried out due to the company’s SOPs (see Supplementary Methods). The extractability was ≥95.0% (95.0–100%) TRR (Total Radioactive Residue) for plasma and ≥88.3% (88.3%–91.3%) TRR for feces. As reference, a standard solution of zapnometinib (0.1 mg/ml in acetonitrile) was used. To assess HPLC method suitability, a column recovery was assessed on each representative sample (one per matrix). The recovery of radioactivity from the HPLC column was determined by collecting the column eluent, following an injection of a representative sample (one per matrix), and determining the radioactive content by submitting aliquots for LSC analysis. The results of these analyses were between 93.8%–105.1% column recoveries.
Next, radioactive metabolic components of zapnometinib in urine, plasma and feces extracts were isolated and profiled. The components were quantified by fraction collection/scintillation analysis, as appropriate to the radioactivity concentrations. Mass spectroscopy was used to propose identities of the major circulatory and excreted metabolites, and to correlate the metabolites detected in the different matrices. Components identified by LC-MS/MS were related to the quantified HPLC analysis by comparison of related radiochromatograms and comparison of elution order. Representative HPLC radiochromatograms of pooled feces extracts collected during 0–24 and 24–48 h post dose from male and female rats (which reveal the main metabolites) were qualitatively similar with some minor sex differences (Figure 3). […]
times with the following solvents following the same procedure: Extract 2 – Acetonitrile/methanol 4:1 (v/v); Extract 3 – Acetonitrile/Water 1:1 (v/v). Duplicate weighed aliquots of each supernatant (ca 0.1 mL) were mixed directly with Ultima Gold scintillation cocktail for measurement of radioactivity concentrations. The extracted residue was allowed to air dry and the total weight was recorded. Duplicate weighed portions (ca 0.05g) were taken for radioassay after oxidation. The extracts were combined and concentrated under a constant stream of nitrogen gas to near dryness and reconstituted in acetonitrile/0.1% aqueous formic acid, 1:1 (v/v) by vortex mixing, sonication and centrifugation at 10000 × g for 5 min at 4°C.
The concentrates were weighed, and duplicate weighed aliquots (0.025 – 0.05 mL) taken for measurement of radioactivity to calculate recovery following concentration. An aliquot of each concentrated extract was injected into the HPLC. […]
(100 mL) in purified water (600 mL) and methanol (300 mL). After measurement of total sample weight (as appropriate), replicate portions of diluted dose solutions (ca 0.1 mL), plasma (ca 0.05 – 0.25 mL), urine (ca 0.05 – 0.25 mL), expired air trap solution (ca 1 mL) and cage wash (ca 1 mL) were mixed directly with Ultima Gold scintillation cocktail (5 mL; 15 mL for […]

[4] = Metabolite profiling of plasma extracts by radio-HPLC (Group 3); format: in vivo, rat; settings: male plasma
Protocol: as §1
Next, radioactive metabolic components of zapnometinib in urine, plasma and feces extracts were isolated and profiled. The components were quantified by fraction collection/scintillation analysis, as appropriate to the radioactivity concentrations. Mass spectroscopy was used to propose identities of the major circulatory and excreted metabolites, and to correlate the metabolites detected in the different matrices. Components identified by LC-MS/MS were related to the quantified HPLC analysis by comparison of related radiochromatograms and comparison of elution order. Representative HPLC radiochromatograms of pooled feces extracts collected during 0–24 and 24–48 h post dose from male and female rats (which reveal the main metabolites) were qualitatively similar with some minor sex differences (Figure 3).

| SMILES | IC50 (MEK) [nM] | Renal elimination [1] | Renal elimination [2] | Amount in pooled feces extracts ([3]; 0-24 hours, female rats) [% Dose] | Amount in pooled feces extracts ([3]; 0-24 hours, male rats) [% Dose] | Amount in pooled feces extracts ([3]; 24-48 hours, female rats) [% Dose] | Amount in pooled feces extracts ([3]; Total (0-48 hours), female rats) [% Dose] | Amount in pooled feces extracts ([3]; Total (0-48 hours), male rats) [% Dose] | Amount detected in plasma by mass spectrometry [4] |
| --- | --- | --- | --- | --- | --- | --- | --- | --- | --- |
| O=C(NOCC1CC1)c1ccc(F)c(F)c1Nc1ccc(I)cc1Cl [CI-1040, 2-(2-chloro-4-iodo-phenylamino)-Ncyclopropylmethoxy-3,4-difluoro-benzamide] | […] | < 5 % of dose | < 5 % of dose |  |  |  |  |  |  |
| CC(C)[C@H](NC(=O)c1ccc(F)c(F)c1Nc1ccc(I)cc1Cl)C(=O)O [M3] |  |  |  | 16.10 | 4.21 | 2.48 | 18.58 | 4.21 | trace amounts |
